Data from patent publication US9850283B2, “Macrocyclic inhibitors of the PD-1/PD-L1 and CD80(B7-1)/PD-L1 protein/protein interactions” (BRISTOL-MYERS SQUIBB COMPANY, priority 2013, dated 2017).
Like-named read-outs stand apart in the source and are kept apart here. Positions of bridges follow the written chain, without caps; N, C: chain ends. Non-standard residues stand in square brackets, D forms with d. Residues, ends and D or L forms follow the SMILES beside them. Ala(benzothiazol-2-yl) = N[C@@H](Cc1nc2ccccc2s1)C(=O)O; Phe(3-CF3) = N[C@@H](Cc1cccc(C(F)(F)F)c1)C(=O)O; Phe(2,4-Cl2) = N[C@@H](Cc1ccc(Cl)cc1Cl)C(=O)O; Bip = N[C@@H](Cc1ccc(-c2ccccc2)cc1)C(=O)O; Phe(3-OMe) = COc1cccc(C[C@H](N)C(=O)O)c1; Phe(4-Cl) = N[C@@H](Cc1ccc(Cl)cc1)C(=O)O; NMeF = CN[C@@H](Cc1ccccc1)C(=O)O; NMeNle = CCCC[C@H](NC)C(=O)O; dNMeA = CN[C@H](C)C(=O)O; Sar = CNCC(=O)O

Columns and labels:
[1] = biological target: T1, Human PD-L1/PD-1 (Homo sapiens, UniProt Q9NZQ7); test: HTRF PD-1-Ig/PD-L1-His binding assay (human PD-L1)
T1 construct: made in house; host or cells: HEK293T
T1 sequence (Q9NZQ7 with tags, fused parts or gaps): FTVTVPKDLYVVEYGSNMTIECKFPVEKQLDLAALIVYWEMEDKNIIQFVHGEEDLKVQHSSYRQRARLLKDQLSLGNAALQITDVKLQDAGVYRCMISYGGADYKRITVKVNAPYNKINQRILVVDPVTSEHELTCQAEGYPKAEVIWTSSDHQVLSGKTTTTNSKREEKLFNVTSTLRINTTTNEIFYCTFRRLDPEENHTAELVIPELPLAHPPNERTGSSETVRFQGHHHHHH
Method in brief: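 Soluble Fc-fused PD-1 and His-tagged PD-L1 (truncated before the transmembrane region) were combined in dPBS with 0.1% (w/v) BSA and 0.05% (v/v) Tween-20. Binding was read by HTRF using europium cryptate anti-Ig antibody (1 nM final) and APC anti-His antibody (20 nM final).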

[2] = biological target: T2, LK35.2-hPD-L1 cells / PE-labeled PD-1-Ig (Homo sapiens, UniProt Q9NZQ7); test: LK35.2-hPD-L1 cell binding high-content screening assay; format: cell-based; conditions: cell binding assay, cell line not given
T2 construct: expressed in transfected cells; host or cells: LK35.2 mouse B cell line
T2 sequence (Q9NZQ7 19-290): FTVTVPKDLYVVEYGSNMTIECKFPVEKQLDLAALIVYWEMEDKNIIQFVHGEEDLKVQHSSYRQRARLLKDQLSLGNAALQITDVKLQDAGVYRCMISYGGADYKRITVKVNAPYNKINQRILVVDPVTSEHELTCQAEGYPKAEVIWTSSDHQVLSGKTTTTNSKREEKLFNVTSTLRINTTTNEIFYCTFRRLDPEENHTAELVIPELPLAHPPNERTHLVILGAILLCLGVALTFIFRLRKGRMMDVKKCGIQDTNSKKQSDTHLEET
Method in brief: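 Binding of PE-conjugated human PD-1-Ig (1 nM final) to human PD-L1 stably expressed on a mouse B-cell line (LK35.2) was measured by high-content imaging after washes. Compound and labeled PD-1-Ig were co-incubated 1 h at 37 °C with cells in RPMI/10% FCS.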

[3] = cluster symbol, read-out: HTRF IC50 cluster
[4] = cluster symbol, read-out: CBA IC50 cluster
[5] = value given instead of cluster, read-out: HTRF IC50 value
[6] = value given instead of cluster, read-out: CBA IC50 value

Row | Structure (SMILES) | IC50 [1, 3] | IC50 [2, 4] | IC50 [1, 5] | IC50 [2, 6]
1 | CCCC[C@H]1C(=O)N(C)CC(=O)N[C@@H](CC(=O)O)C(=O)N[C@@H](Cc2ccccc2)C(=O)N(C)[C@@H](Cc2ccccc2)C(=O)N[C@@H](Cc2ccc(O)cc2)C(=O)N(C)CC(=O)N[C@@H](Cc2c[nH]c3ccccc23)C(=O)N[C@@H](Cc2ccc(O)cc2)C(=O)N[C@@H](CC(C)C)C(=O)N[C@H](C(=O)NCC(N)=O)CSCC(=O)N[C@@H](Cc2ccccc2)C(=O)N(C)[C@@H](Cc2ccccc2)C(=O)N1C [Example 3543] (HELM PEPTIDE1{[O=C(C[*:3])[*:2]].F.[meF].[CCCC[C@@H](C(=O)[*:2])N(C)[*:1]].[Sar].D.F.[meF].Y.[Sar].W.Y.L.C.G.[am]}$PEPTIDE1,PEPTIDE1,1:R3-14:R3$$$V2.0) | > 0.0305 µM | > 0.0743 µM | – | –
2 | CCCC[C@H]1C(=O)N(C)CC(=O)N[C@@H](CC(=O)O)C(=O)N[C@@H](C(C)C)C(=O)N(C)[C@@H](Cc2ccccc2)C(=O)N[C@@H](Cc2ccc(O)cc2)C(=O)N(C)CC(=O)N[C@@H](Cc2ccc(-c3ccccc3)cc2)C(=O)N[C@@H](Cc2ccc(O)cc2)C(=O)N[C@@H](CC(C)C)C(=O)N[C@H](C(=O)NCC(N)=O)CSCC(=O)N[C@@H](Cc2ccccc2)C(=O)N(C)[C@@H](Cc2ccccc2)C(=O)N1C [Example 3545] ({CH2CO}-F[NMeF][NMeNle][Sar]DV[NMeF]Y[Sar][Bip]YLCG-NH2; thioether N-13) | > 0.0305 µM | > 0.0743 µM | – | –
3 | CCCC[C@H]1C(=O)N(C)CC(=O)N[C@@H](CC(=O)O)C(=O)N[C@@H](C(C)C)C(=O)N(C)[C@@H](Cc2ccccc2)C(=O)N[C@@H](Cc2ccc(O)cc2)C(=O)N(C)CC(=O)N[C@@H](Cc2ccc(Cl)cc2)C(=O)N[C@@H](Cc2ccc(O)cc2)C(=O)N[C@@H](CC(C)C)C(=O)N[C@H](C(=O)NCC(N)=O)CSCC(=O)N[C@@H](Cc2ccccc2)C(=O)N(C)[C@@H](Cc2ccccc2)C(=O)N1C [Example 3546] ({CH2CO}-F[NMeF][NMeNle][Sar]DV[NMeF]Y[Sar][Phe(4-Cl)]YLCG-NH2; thioether N-13) | > 0.0305 µM | > 0.0743 µM | – | –
4 | CCCC[C@H]1C(=O)N(C)CC(=O)N[C@@H](CC(=O)O)C(=O)N[C@@H](C(C)C)C(=O)N(C)[C@@H](Cc2ccccc2)C(=O)N[C@@H](Cc2ccc(O)cc2)C(=O)N(C)CC(=O)N[C@@H](Cc2c[nH]c3ccccc23)C(=O)N[C@@H](Cc2ccc(-c3ccccc3)cc2)C(=O)N[C@@H](CC(C)C)C(=O)N[C@H](C(=O)NCC(N)=O)CSCC(=O)N[C@@H](Cc2ccccc2)C(=O)N(C)[C@@H](Cc2ccccc2)C(=O)N1C [Example 3547] ({CH2CO}-F[NMeF][NMeNle][Sar]DV[NMeF]Y[Sar]W[Bip]LCG-NH2; thioether N-13) | > 0.0305 µM | > 0.0743 µM | – | –
5 | CCCC[C@H]1C(=O)N(C)CC(=O)N[C@@H](CC(=O)O)C(=O)N[C@@H](C(C)C)C(=O)N(C)[C@@H](Cc2ccccc2)C(=O)N[C@@H](Cc2ccc(O)cc2)C(=O)N(C)CC(=O)N[C@@H](Cc2cccc(OC)c2)C(=O)N[C@@H](Cc2ccc(O)cc2)C(=O)N[C@@H](CC(C)C)C(=O)N[C@H](C(=O)NCC(N)=O)CSCC(=O)N[C@@H](Cc2ccccc2)C(=O)N(C)[C@@H](Cc2ccccc2)C(=O)N1C [Example 3548] ({CH2CO}-F[NMeF][NMeNle][Sar]DV[NMeF]Y[Sar][Phe(3-OMe)]YLCG-NH2; thioether N-13) | > 0.0305 µM | > 0.0743 µM | – | –
6 | CCCC[C@H]1C(=O)N(C)CC(=O)N[C@@H](CC(=O)O)C(=O)N[C@@H](C(C)C)C(=O)N(C)[C@@H](Cc2ccccc2)C(=O)N[C@@H](Cc2ccc(O)cc2)C(=O)N(C)CC(=O)N[C@@H](Cc2ccc(Cl)cc2Cl)C(=O)N[C@@H](Cc2ccc(O)cc2)C(=O)N[C@@H](CC(C)C)C(=O)N[C@H](C(=O)NCC(N)=O)CSCC(=O)N[C@@H](Cc2ccccc2)C(=O)N(C)[C@@H](Cc2ccccc2)C(=O)N1C [Example 3549] ({CH2CO}-F[NMeF][NMeNle][Sar]DV[NMeF]Y[Sar][Phe(2,4-Cl2)]YLCG-NH2; thioether N-13) | – | – | 0.272 µM | 0.728 µM
7 | CCCC[C@H]1C(=O)N(C)CC(=O)N[C@@H](CC(=O)O)C(=O)N[C@@H](C(C)C)C(=O)N(C)[C@@H](Cc2ccccc2)C(=O)N[C@@H](Cc2ccc(O)cc2)C(=O)N(C)CC(=O)N[C@@H](Cc2cccc(C(F)(F)F)c2)C(=O)N[C@@H](Cc2ccc(O)cc2)C(=O)N[C@@H](CC(C)C)C(=O)N[C@H](C(=O)NCC(N)=O)CSCC(=O)N[C@@H](Cc2ccccc2)C(=O)N(C)[C@@H](Cc2ccccc2)C(=O)N1C [Example 3550] ({CH2CO}-F[NMeF][NMeNle][Sar]DV[NMeF]Y[Sar][Phe(3-CF3)]YLCG-NH2; thioether N-13) | – | – | 0.0409 µM | 0.149 µM
8 | CCCC[C@H]1C(=O)N(C)CC(=O)N[C@@H](CC(=O)O)C(=O)N[C@@H](C(C)C)C(=O)N(C)[C@@H](Cc2ccccc2)C(=O)N[C@@H](Cc2ccc(O)cc2)C(=O)N(C)[C@H](C)C(=O)N[C@@H](Cc2c[nH]c3ccccc23)C(=O)N[C@@H](Cc2ccc(O)cc2)C(=O)N[C@@H](CC(C)C)C(=O)N[C@H](C(=O)NCC(N)=O)CSCC(=O)N[C@@H](Cc2ccccc2)C(=O)N(C)[C@@H](Cc2ccccc2)C(=O)N1C [Example 3551] ({CH2CO}-F[NMeF][NMeNle][Sar]DV[NMeF]Y[dNMeA]WYLCG-NH2; thioether N-13) | 0.00676 to 0.0303 µM | 0.00478 to 0.0729 µM | – | –
9 | CCCC[C@H]1C(=O)N[C@H](CC(=O)O)C(=O)N[C@@H](CC(=O)O)C(=O)N[C@@H](C(C)C)C(=O)N(C)[C@@H](Cc2ccccc2)C(=O)N[C@@H](Cc2ccc(O)cc2)C(=O)N(C)CC(=O)N[C@@H](Cc2c[nH]c3ccccc23)C(=O)N[C@@H](Cc2ccc(O)cc2)C(=O)N[C@@H](CC(C)C)C(=O)N[C@H](C(=O)NCC(N)=O)CSCC(=O)N[C@@H](Cc2ccccc2)C(=O)N(C)[C@@H](Cc2ccccc2)C(=O)N1C [Example 3552] (HELM PEPTIDE1{[O=C(C[*:3])[*:2]].F.[meF].[CCCC[C@@H](C(=O)[*:2])N(C)[*:1]].[dD].D.V.[meF].Y.[Sar].W.Y.L.C.G.[am]}$PEPTIDE1,PEPTIDE1,1:R3-14:R3$$$V2.0) | 0.000385 to 0.00674 µM | 0.00478 to 0.0729 µM | – | –
10 | CCCC[C@H]1C(=O)N(C)CC(=O)N[C@@H](CC(=O)O)C(=O)N[C@@H](C(C)C)C(=O)N(C)[C@@H](Cc2ccccc2)C(=O)N[C@@H](Cc2ccc(O)cc2)C(=O)N(C)CC(=O)N[C@@H](Cc2nc3ccccc3s2)C(=O)N[C@@H](Cc2ccc(O)cc2)C(=O)N[C@@H](CC(C)C)C(=O)N[C@H](C(=O)NCC(N)=O)CSCC(=O)N[C@@H](Cc2ccccc2)C(=O)N(C)[C@@H](Cc2ccccc2)C(=O)N1C [Example 3557] ({CH2CO}-F[NMeF][NMeNle][Sar]DV[NMeF]Y[Sar][Ala(benzothiazol-2-yl)]YLCG-NH2; thioether N-13) | > 0.0305 µM | > 0.0743 µM | – | –
11 | CCCC[C@H]1C(=O)N(C)CC(=O)N[C@@H](CC(=O)O)C(=O)N[C@@H](C(C)C)C(=O)N(C)[C@@H](Cc2ccccc2)C(=O)N[C@@H](Cc2ccc(O)cc2)C(=O)N(C)CC(=O)N[C@@H](Cc2c[nH]c3ccccc23)C(=O)N[C@@H](Cc2nc3ccccc3s2)C(=O)N[C@@H](CC(C)C)C(=O)N[C@H](C(=O)NCC(N)=O)CSCC(=O)N[C@@H](Cc2ccccc2)C(=O)N(C)[C@@H](Cc2ccccc2)C(=O)N1C [Example 3558] ({CH2CO}-F[NMeF][NMeNle][Sar]DV[NMeF]Y[Sar]W[Ala(benzothiazol-2-yl)]LCG-NH2; thioether N-13) | > 0.0305 µM | > 0.0743 µM | – | –
